According to patent publication US7202239B2, “Cyclohexylphenyl carboxamides tocolytic oxytocin receptor antagonists” (Wyeth, priority 2001, dated 2007):

Biological target: human V2 vasopressin receptor subtype (Homo sapiens, UniProt P30518)
Assay: Vasopressin binding in CHO cell membranes expressing human vasopressin V2 subtype receptors
Conditions: [3H]arginine vasopressin; for inhibition at 0.1 µM / V2 % inhibition at 100 nM: 100 nM; for IC50: value in parentheses
Description: Vasopressin Binding in Chinese Hamster Ovary Cell Membranes Expressing Human Vasopressin V2 Subtype Receptors
Chinese Hamster Ovary (CHO) cells stably transfected with the human V2 subtype receptors were obtained from M. Thibonnier, Case Western Reserve University School of Medicine, Cleveland, Ohio.
A. Passaging and Amplification of Cells:
CHO cells transfected with the human vasopressin V2 subtype receptors obtained from M. Thibonnier (pZeoSV vector) are allowed to grow to confluency (approx. >90%) in T-150 flasks under sterile conditions, in a cell culture medium of F-12 Nutrient Mixture (HAM) with L-glutamine (Gibco Cat. # 11765-054) containing 15 mM HEPES (Gibco Cat. # 15630-080), 1% antibiotic/antimycotic (add 5 mL 100×, Gibco Cat. # 15240-062 per 500 mL F-12), 250 μg/mL Zeocin (add 1.25 mL of 100 mg/mL Invitrogen R-250-01 per 500 mL F-12) and 10% Fetal Bovine Serum (Qualified, heat inactivated, Gibco Cat. # 16140-063). The medium is removed by aspiration and the cells washed with 10 mL of Hank's Balanced Salt solution (Gibco Cat. # 14175-095). The salt solution is removed by aspiration and the cells trypsinized with 5 mL of trypsin-EDTA (0.05% trypsin, 0.53 mM EDTA-4Na, Gibco Cat. # 25300-070) for 1 min. The trypsin is removed by aspiration and the cells dislodged by tapping. Cell Culture medium (e.g. 30 mL for 1:30 split) is immediately added and mixed well to inactivate trypsin. 1 mL of detached cells is added to new culture flasks containing fresh Cell Culture medium (e.g. into 25 mL per T-150 flask), and mixed gently. The cells are incubated at 37° C. in 5% CO2. The medium is changed at 3 to 4 day interval (or as appropriate). The cells grow to confluency (approx. >75%–95%) within 7–8 days. All steps are done under sterile conditions. B. Membrane Preparation: The cells are washed twice gently with Hank's Balanced Salt solution (e.g. use 10 mL per T-150 flask). The excess solution is removed and the cells bathed for 15–30 min. in an enzyme-free Cell Dissociation Buffer (e.g. use 8 mL Hank's Based, Gibco Cat. # 13150-016 per T-150 flask) until cells are loosened. The contents are transferred to centrifuge tubes (50 mL) kept in an ice bath. All subsequent steps are done at 4° C. The tubes are centrifuged at 300× g for 15 min (1380 rpm on SORVAL, Model RT6000D, using the rotor for 50 mL tubes). The supernatant is discarded and the cells suspended in homogeneizing buffer(10 mM Tris-HCl containing 0.25 M sucrose and 1 mM EDTA, pH 7.4) ensuring that the volume of the buffer is about ten times the volume of the cell pellet. The cells are pooled into a centrifuge tube (50 mL) and homogenized with a Polytron at setting 6 for 10 sec. The homogenate is transferred into a Potter-Elvjehm homogeneizer and homogenized with 3 strokes. The homogenate is centrifuged at 1500×g for 60 min at 4° C. (3100 rpm using SORVAL, model RT6000D, using the rotor for 50 mL tubes). The pellet is discarded. The supernatant is centrifuged at 100,000×g for 60 min. at 4° C. (Beckman L8-80M ultracentrifuge; spin at 37,500 rpm with rotor type 70 Ti for 50 mL tubes; 38,000 rpm with type 80Ti for 15 mL tubes; or 35,800 rpm with rotor type 45Ti). The supernantant is discarded and the pellet suspended in 3 to 4 mL of Tris buffer (50 mM TRIS-HCl, pH 7.4). The protein content is estimated by the Bradford or Lowry method. The volume of the membrane suspension is adjusted with the membrane buffer (50 mM Tris-HCl containing 0.1% BSA and 0.1 mM PMSF) to give 3.0 mg/mL (or as appropriate) of protein. The membranes are aliquoted and stored at −70° C. C. Radioligand Binding Assay: In wells of a 96-well format microtiter plate, is added 90, 110 or 130 μL (to make up a final volume of 200 μL) of assay buffer containing 50 mM of Tris-HCl (pH 7.4), […], 1 mg % aprotinin, 1 mg % leupeptin, 2 mg % 1,10-phenanthroline, 10 mg % trypsin inhibitor, and 0.1 mM PMSF. The inhibitors are added on the day of the experiment. […]

Sequence of human V2 vasopressin receptor subtype (P30518 whole entry): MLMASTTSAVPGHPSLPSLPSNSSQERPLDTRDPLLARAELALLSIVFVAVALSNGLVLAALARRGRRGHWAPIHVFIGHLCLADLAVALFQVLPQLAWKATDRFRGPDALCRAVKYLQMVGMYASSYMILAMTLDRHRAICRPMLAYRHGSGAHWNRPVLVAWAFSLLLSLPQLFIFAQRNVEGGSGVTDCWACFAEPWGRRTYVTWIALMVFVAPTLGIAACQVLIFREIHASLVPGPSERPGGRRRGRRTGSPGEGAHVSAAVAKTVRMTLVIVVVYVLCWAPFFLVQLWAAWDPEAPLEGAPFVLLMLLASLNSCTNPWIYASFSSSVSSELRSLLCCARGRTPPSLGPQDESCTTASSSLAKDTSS

Row | IC50 | SMILES | other results
1 | > 1000 nM | CC(=O)c1ccc2n1Cc1ccccc1N(C(=O)c1ccc(C3CCCCC3)cc1)C2 [Example 6, 1-[10-(4-Cyclohexyl-benzoyl)-10,11-dihydro-5H-pyrrolo[2,1-c][1,4]benzodiazepin-3-yl]-ethanone] | –
2 | > 1000 nM | NNC(=O)c1ccc2n1Cc1ccccc1N(C(=O)c1ccc(C3CCCCC3)cc1)C2 [Example 8, 10-(4-Cyclohexy-benzoyl)-10,11-dihydro-5H-pyrrolo[2,1-c][1,4]benzodiazepine-3-carboxylic acid hydrazide] | –
3 | > 1000 nM | NC(=O)c1ccc2n1Cc1ccccc1N(C(=O)c1ccc(C3CCCCC3)cc1)C2 [Example 16, 10-(4-Cyclohexyl-benzoyl)-10,11-dihydro-5H-pyrrolo[2,1-c][1,4]benzodiazepin-3-carboxamide] | –
4 | 477 nM | CN(C)/C=N/C(=O)c1ccc2n1Cc1ccccc1N(C(=O)c1ccc(C3CCCCC3)cc1)C2 [Example 17] | –
5 | > 1000 nM | O=C(c1ccc2n1Cc1ccccc1N(C(=O)c1ccc(C3CCCCC3)cc1)C2)N1CCN(c2ncccn2)CC1 [Example 23] | –
6 | > 1000 nM | CN1CCN(C(=O)c2ccc3n2Cc2ccccc2N(C(=O)c2ccc(C4CCCCC4)cc2)C3)CC1 [Example 24, [10-(4-Cyclohexyl-benzoyl)-10,11-dihydro-5H-pyrrolo[2,1-c][1,4]benzodiazepin-3-yl](4-methyl-1-piperazinyl)-methanone] | –
7 | > 1000 nM | O=C(c1ccc2n1Cc1ccccc1N(C(=O)c1ccc(C3CCCCC3)cc1)C2)N1CCC(N2CCCC2)CC1 [Example 25, [10-(4-Cyclohexyl-benzoyl)-10,11-dihydro-5H-pyrrolo[2,1-c][1,4]benzodiazepin-3-yl][4-(1-pyrrolidinyl)-1-piperidinyl]methanone] | –
8 | > 1000 nM | O=C(c1ccc2n1Cc1ccccc1N(C(=O)c1ccc(C3CCCCC3)cc1)C2)N1CCC(N2CCCCC2)CC1 [Example 26, [1,4′]Bipiperidinyl-1′-yl-[10-(4-cyclohexyl-benzoyl)-10,11-dihydro-5H-pyrrolo[2,1-c][1,4]benzodiazepin-3-yl]-methanone] | –

Second part, the molecule before the results:

Row | SMILES | IC50 | other results
9 | COC(=O)c1ccc2c(c1)N(C(=O)c1ccc(C3CCCCC3)cc1)Cc1ccc(C(=O)N3CCN(C)CC3)n1C2.Cl [Example 1, Methyl 10-(4-cyclohexylbenzoyl)-3-[(4-methyl-1-piperazinyl)carbonyl]-10,11-dihydro-5H-pyrrolo[2,1-c][1,4]benzodiazepine-8-carboxylate hydrochloride salt] | – | inhibition at 0.1 µM: 3%
10 | CN1CCN(C(=O)c2ccc3n2Cc2ccc(C(=O)O)cc2N(C(=O)c2ccc(C4CCCCC4)cc2)C3)CC1 [Example 3, 10-(4-Cyclohexyl-benzoyl)-3-[(4-methyl-1-piperazinyl)carbonyl]-10,11-dihydro-5H-pyrrolo[2,1-c][1,4]benzodiazepine-8-carboxylic acid] | – | inhibition at 0.1 µM: -4%
11 | CC(C)(C)c1ccc(C(=O)c2ccc3n2Cc2ccccc2N(C(=O)c2ccc(C4CCCCC4)cc2)C3)cc1 [Example 5, [4-(tert-Butyl)phenyl][10-(4-cyclohexyl-benzoyl)-10,11-dihydro-5H-pyrrolo[2,1-c][1,4]benzodiazepin-3-yl]methanone] | – | inhibition at 0.1 µM: 2%
12 | O=C(c1ccc(C2CCCCC2)cc1)N1Cc2ccc(C(=O)C(Cl)(Cl)Cl)n2Cc2ccccc21 [Example 7, 2,2,2-Trichloro-1-[10-(4-cyclohexyl-benzoyl)-10,11-dihydro-5H-pyrrolo[2,1-c][1,4]benzodiazepin-3-yl]-1-ethanone] | – | inhibition at 0.1 µM: 10%
13 | CC(=NNC(=O)c1ccc2n1Cc1ccccc1N(C(=O)c1ccc(C3CCCCC3)cc1)C2)N(C)C [Example 9, N′-{[10-(4-Cyclohexyl-benzoyl)-10,11-dihydro-5H-pyrrolo[2,1-c][1,4]benzodiazepin-3-yl]carbonyl}-N,N-dimethylethanehydrazonamide] | > 1000 nM | –
14 | CN(C)C=NNC(=O)c1ccc2n1Cc1ccccc1N(C(=O)c1ccc(C3CCCCC3)cc1)C2 [Example 10, N′-{[10-(4-Cyclohexyl-benzoyl)-10,11-dihydro-5H-pyrrolo[2,1-c][1.4]benzodiazepin-3-yl]carbonyl}-N,N-dimethylhydrazonoformamide] | 1160 nM | –
15 | CC(=O)NNC(=O)c1ccc2n1Cc1ccccc1N(C(=O)c1ccc(C3CCCCC3)cc1)C2 [Example 11, N′-Acetyl-10-(4-cyclohexyl-benzoyl)-10,11-dihydro-5H-pyrrolo[2,1-c][1,4]benzodiazepine-3-carbonyl-hydrazide] | > 1000 nM | –
16 | Cc1ccccc1C(=O)NNC(=O)c1ccc2n1Cc1ccccc1N(C(=O)c1ccc(C3CCCCC3)cc1)C2 [Example 12, 10-(4-Cyclohexyl-benzoyl)-N′-(2-methylbenzoyl)-10,11-dihydro-5H-pyrrolo[2,1-c][1,4]benzodiazepine-3-carbonyl-hydrazide] | – | V2 % inhibition at 100 nM: 7%
17 | O=C(NNC(=O)C1CC1)c1ccc2n1Cc1ccccc1N(C(=O)c1ccc(C3CCCCC3)cc1)C2 [Example 13, 10-(4-Cyclohexyl-benzoyl)-N′-(cyclopropylcarbonyl)-10,11-dihydro-5H-pyrrolo[2,1-c][1,4]benzodiazepine-3-carbonyl-hydrazide] | – | V2 % inhibition at 100 nM: 18%
18 | Cc1cccc(C(=O)NNC(=O)c2ccc3n2Cc2ccccc2N(C(=O)c2ccc(C4CCCCC4)cc2)C3)c1 [Example 14, 10-(4-Cyclohexyl-benzoyl)-N′-(3-methyl-benzoyl)-10,11-dihydro-5H-pyrrolo[2,1-c][1,4]benzodiazepine-3-carbonyl-hydrazide] | – | V2 % inhibition at 100 nM: 4%
19 | O=C(NNC(=O)c1ccc2n1Cc1ccccc1N(C(=O)c1ccc(C3CCCCC3)cc1)C2)Nc1ccccc1 [Example 15, 2-{[10-(4-Cyclohexyl-benzoyl)-10,11-dihydro-5H-pyrrolo[2,1-c][1,4]benzodiazepin-3-yl]carbonyl}-N-phenyl-1-hydrazinecarboxamide] | – | inhibition at 0.1 µM: 11%
20 | C/C(=N\C(=O)c1ccc2n1Cc1ccccc1N(C(=O)c1ccc(C3CCCCC3)cc1)C2)N(C)C [Example 18] | 294 nM | –
21 | CN(C)NC(=O)c1ccc2n1Cc1ccccc1N(C(=O)c1ccc(C3CCCCC3)cc1)C2 [Example 19, 10-(4-Cyclohexyl-benzoyl)-N′-N′-dimethyl-10,11-dihydro-5H-pyrrolo[2,1-c][1,4]benzodiazepine-3-carbohydrazide] | > 1000 nM | –
22 | CN(C)/C=C/C(=O)c1ccc2n1Cc1ccccc1N(C(=O)c1ccc(C3CCCCC3)cc1)C2 [Example 20, (E)-1-[10-(4-Cyclohexyl-benzoyl)-10,11-dihydro-5H-pyrrolo[2,1-c][1,4]benzodiazepin-3-yl]-3-(dimethylamino)-2-propen-1-one] | – | inhibition at 0.1 µM: 11%
23 | CN(N)C(=O)c1ccc2n1Cc1ccccc1N(C(=O)c1ccc(C3CCCCC3)cc1)C2 [Example 21, 10-(4-Cyclohexyl-benzoyl)-N-methyl-10,11-dihydro-5H-pyrrolo[2,1-c][1,4]benzodiazepine-3-carboxylic acid hydrazide] | – | inhibition at 0.1 µM: 13%
24 | O=C(O)c1ccc2n1Cc1ccccc1N(C(=O)c1ccc(C3CCCCC3)cc1)C2 [Example 22, 10-(4-Cyclohexyl-benzoyl)-10,11-dihydro-5H-pyrrolo[2,1 c][1,4]benzodiazepine-3-carboxylic acid] | – | V2 % inhibition at 100 nM: 19%
